{"source": "patent US20060198860A1", "about": "“Synergistic blends of monoterpenes for mountain pine beetle pheromones” (Phero Tech Inc., priority 2005, published 2006)", "origin": "cited, not measured here", "key": {"[1]": {"system": "mountain pine beetle", "details": "for catch versus pheromones alone: five doses, less than 1.0 mg per day to over 6.0 g per day"}, "[2]": {"system": "mountain pine beetles", "details": "component alone"}, "[3]": {"system": "mountain pine beetle", "details": "myrcene at approximately 100 mg per day"}, "[4]": {"system": "mountain pine beetle", "details": "myrcene from 18 mg per day to 150 mg per day; traps also baited with trans-verbenol and exo-brevicomin"}, "[5]": {"system": "mountain pine beetle", "details": "in one instance (of four Rocky Mountain locations); with trans-verbenol and exo-brevicomin"}}, "note": "Where two headings read alike, the source gives them in different places."}
{"compound": "CC1=CCC2C(C1)C2(C)C", "note": "(centres unmarked) [3-carene]", "values": [{"measurement": "catches versus pheromones alone", "setting": "[1]; dose of 600 mg per day", "result": "higher than to the pheromones alone"}, {"measurement": "beetles caught", "setting": "[2]", "result": "one female"}]}
{"compound": "C=C1C=CC(C(C)C)CC1", "note": "(stereo not drawn) [β-phellandrene]", "values": [{"measurement": "catch versus pheromones alone", "setting": "[1]", "result": "at no dose was the catch significantly higher"}]}
{"compound": "CC1=CCC2CC1C2(C)C", "note": "(stereo not drawn) [α-pinene]", "values": [{"measurement": "catch versus pheromones alone", "setting": "[1]", "result": "at no dose was the catch significantly different"}]}
{"compound": "C=CC(=C)CCC=C(C)C", "note": "[myrcene]", "values": [{"measurement": "catches versus pheromones alone", "setting": "[1]; doses of 0.9 and 6.4 g per day", "result": "significantly higher"}, {"measurement": "synergist relative to the foliage blend", "setting": "[3]; females", "result": "over three times better"}, {"measurement": "synergist relative to the foliage blend", "setting": "[3]; males", "result": "over four times a better synergist"}, {"measurement": "numbers of both sexes captured on raising the release rate", "setting": "[4]", "result": "more than doubling"}]}
{"compound": "C=C1CCC2CC1C2(C)C", "note": "(stereo not drawn) [β-pinene]", "values": [{"measurement": "catch versus pheromones alone", "setting": "[1]", "result": "at no dose was the catch significantly different"}]}
{"compound": "CC1=CCC(C(C)C)=CC1", "note": "[γ-terpinene]", "values": [{"measurement": "catches versus pheromone controls", "setting": "[1]; doses of 51.7 mg per day and 1.1 g per day", "result": "significantly higher"}]}
{"compound": "trans-verbenol", "values": [{"measurement": "beetles caught", "setting": "[2]", "result": "no beetles"}]}
{"compound": "CC1=CCC(=C(C)C)CC1", "note": "[terpinolene]", "values": [{"measurement": "catch versus pheromones alone", "setting": "[1]", "result": "no combination of terpinolene with trans-verbenol and exo-brevicomin that resulted in higher catches"}, {"measurement": "response versus pheromones alone", "setting": "[1]; highest dose (2.1 g per day)", "result": "significantly lowered"}, {"measurement": "synergist, times better than myrcene", "setting": "[5]", "result": "~88", "unit": "times"}]}
